From patent US8466161B2, “Hydroxamate derivative, a production method for the same, and a pharmaceutical composition comprising the same” (Chong Kun Dang Pharmaceutical Corp., priority 2009, dated 2013) come the findings set out here.

Data set [1] has as its system HCT116 (human colorectal carcinoma). As to the kind of experiment: In vivo anticancer activity, HCT116 tumor transplantation model. Also noted: species or system BALB/c nude mice (human tumor xenograft). As for the experimental part:
(§1) Male BALB/c nude mice (4-week old) used in human tumor transplantation studies were purchased from Central Animal Laboratory Inc. (Korea) or Orient Bio Inc. (Korea). The animals were permitted ad libitum access to sterile feed and water in a sterile breeding system at 23+0.5° C.
(§2) For use in tumor transplantation studies, the human cancer cell lines HCT116 (human colorectal carcinoma, CCL-247), PC-3 (human prostate adenocarcinoma, CRL-1435), and A549 (human lung carcinoma, CCL-185) were purchased from ATCC (American Type Culture Collection, Rockville, Md., USA).
(§3) HCT116 cells were cultured in an air incubator under conditions of 37° C. and 5% CO2 using McCoy'SA medium (Gibco BRL) containing 10% heat-inactivated fetal bovine serum (Gibco BRL) and 1% antibiotics-antymycotics (Gibco BRL). Cell lines other than the HCT116 cell line were cultured in an air incubator under conditions of 37° C. and 5% CO2 using RPM1640 medium (Gibco BRL) containing 10% heat-inactivated fetal bovine serum (Gibco BRL) and 1% antibiotics-antymycotics (Gibco BRL).
(§4) Studies on the in vivo transplantation of human cancer cells were carried out in the following manner. Human cancer cells (HCT116, PC-3, and A549) that proliferated in vitro were injected subcutaneously into the abdominal region of BALB/c nude mice and allowed to proliferate in vivo. 20-25 days after the injection, the mice were sacrificed by cervical dislocation, and the solid cancer that proliferated in each of the mice was isolated aseptically, and connective or necrotic tissue and skin was removed therefrom, thus collecting a fresh cancer tissue. 50 mg of a fragment was taken aseptically from the cancer tissue and inserted into a 16-gauge trocar which was then transplanted subcutaneously into the upper abdominal region of mice.
(§5) 15-30 days after the human cancer cell lines have been transplanted into the BALB/c nude mice, only mice in which the cancer cells have proliferated to a given size were selected and used in the experiment. When the tumor size in each of the test groups reached 100-200 mm^3 after cancer cell transplantation, the experiment was started.
(§6) The anticancer effect of each drug was evaluated based on the inhibition rate (IR %) of tumor volume that indicates the tumor volume at reference date in comparison with control groups. […] Tumor size=(short diameter)×(long diameter)/2 I.R.(%)=[1−(mean tumor size of drug-administered group)/(mean tumor size of control group)]×100

For another data set, the system named is HL60 cell line. In words: Inhibitory effect on growth of HL60 cell line (MTT). The class given is cell-based. As to conditions: Homo sapiens, HL-60, 72 h, 3 days culture. As for the experimental part: In the culture of HL60 cells, 10% FBS-containing RPMI1640 medium was used Each of test substances was serially diluted in DMSO to a concentration of 10 mg/ml and serially diluted in PBS to a final concentration ranging from 100 μg/ml to 0.03 μg/ml. 20 μl (micro-liter) of each of the serially diluted test substances and 180 μl (micro-liter) of a medium containing 60×10^4 cells/ml were added to a 96-well plate and cultured under conditions of 37° C. and 5% CO2 for 3 days. After completion of the culture, 50 μl (micro-liter) of a solution of 1.25 mg/ml MTT (3-(4,5-dimethylthiazol-2-yl)-2,5-diphenyltetrazolium bromide) in PBS was added to each well of the plate and incubated at 37° C. for 3 hours. The formed formazan crystal was dissolved in 150 μl (micro-liter) of DMSO, and the absorbance at 570 nm was measured.

Another data set in a line: in vivo. As to conditions: BALB/c nude, mouse, ip.
The subject of data set [2] is PC-3 (human prostate adenocarcinoma). As to the kind of experiment: In vivo anticancer activity, PC-3 tumor transplantation model. The arrangement: species or system BALB/c nude mice (human tumor xenograft). The settings on record: Table 21; 10 mg/kg/day, qd x 5, 3 wks. As to the method:
as §1, §2, §3, §4, §5, §6

Data set [3] relates to A549 (human lung carcinoma). As to the kind of experiment: In vivo anticancer activity, A549 tumor transplantation model. Also noted: species or system BALB/c nude mice (human tumor xenograft). As to conditions: Table 20; 10 mg/kg/day, qd x 5, 3 wks. As to the method:
as §1, §2, §3, §4, §5, §6

[4] abbreviates: Table 19, 40 mg/kg/day, qd x 5, 2 wks, ip.
Setting [5] is: Table 19, 60 mg/kg/day, qd x 5, 2 wks, ip.

Broadly, the IC50 is the concentration needed to halve the response being measured. Lower therefore signals greater potency in that assay. On to `Cc1[nH]c2ccccc2c1CCNCc1ccc(/C=C/C(=O)NO)cc1` [LBH 589, Panobinostat, reference compound], for which the “IR (%)” value in data set [1] (Table 18, 5 mg/kg/day, qd x 5, 2 wks, ip) is given as 40%; in data set [1] (Table 18, 10 mg/kg/day, qd x 5, 2 wks, ip), 65%; in data set [1] (Table 19, 5 mg/kg/day, qd x 5, 2 wks, ip), 40%; in data set [1] (Table 19, 10 mg/kg/day, qd x 5, 2 wks, ip), 65%; in data set [1] (Table 22, 50 mg/kg/day, qd x 5, 3 wks, p.o) it was 0%; in data set [2] it was 48%. Also, the “IR (%)” value in data set [3] is reported as 58%. In the data set with HL60 cell line, the IC50 lay within 20 to 50 nM. Also, the MTD at 2 weeks in “in vivo” stood at 10 mg/kg.

For `CN1CCN(C(=S)N(CCCCCCC(=O)NO)c2ccc(-c3ccc4c(cnn4C)c3)cc2)CC1` [Compound 359, N-hydroxy-7-(4-methyl-N-(4-(1-methyl-1H-indazol-5-yl)phenyl)piperazine-1-thiocarboamido)heptanamide], the half-inhibitory concentration (IC50) in the data set with HL60 cell line was in the range of 20 to 50 nM.

As for `CN1CCN(S(=O)(=O)N(CCCCCCC(=O)NO)c2ccc(-c3ccc4cnn(C)c4c3)cc2)CC1` [Compound 342, N-hydroxy-7-(4-methyl-N-(4-(1-methyl-1H-indazol-6-yl)phenyl)piperazine-1-sulfonamido)heptanamide], in the data set with HL60 cell line, the IC50 lay within 20 to 50 nM.

For the compound `Cc1cc2cc(-c3ccc(N(CCCCCCC(=O)NO)C(=O)N4CCN(C)CC4)cc3)ccc2[nH]1` [Compound 334, N-(7-(hydroxyamino)-7-oxoheptyl)-4-methyl-N-(4-(2-methyl-1H-indol-5-yl)phenyl)piperazine-1-carboxamide], the “IR (%)” value in data set [1] (setting [4]) came out at 47%; in data set [1] (setting [5]) it was 66%. In the data set with HL60 cell line, this compound showed an IC50 of 10 to 20 nM. Besides, in “in vivo”, the MTD at 2 weeks worked out at 60 mg/kg.

Regarding `CS(=O)(=O)N(CCCCCCC(=O)NO)c1ccc(-c2ccc3cc[nH]c3c2)cc1` [Compound 264, 7-(N-(4-(1H-indol-6-yl)phenyl)methylsulfonamido)-N-hydroxyheptanamide], the IC50 with HL60 cell line lay within 20 to 50 nM.

As for `O=C(CCCCCCN(C(=O)c1cccnc1)c1ccc(-c2ccc3cc[nH]c3c2)cc1)NO` [Compound 181, N-(4-(1H-indol-6-yl)phenyl)-N-(7-(hydroxyamino)-7-oxoheptyl)nicotinamide], the half-inhibitory concentration (IC50) with HL60 cell line is 20 to 50 nM.

For `Nc1ccccc1NC(=O)c1ccc(CNc2nccc(-c3cccnc3)n2)cc1` [MGCD 0103, reference compound], the “IR (%)” value in data set [1] (Table 22, 120 mg/kg/day, qd x 5, 3 wks, p.o) is given as 50%.

`CN1CCN(C(=O)N(CCCCCCC(=O)NO)c2ccc(-c3ccc4cc[nH]c4c3)cc2)CC1` [Compound 309, N-(4-(1H-indol-6-yl)phenyl)-N-(7-(hydroxyamino)-7-oxoheptyl)-4-methylpiperazine-1-carboxamide] gave an IC50 with HL60 cell line of 10 to 20 nM.

In the data set on HL60 cell line, `CCOC(=O)N(CCCCCCC(=O)NO)c1ccc(-c2ccc3cc[nH]c3c2)cc1` [Compound 267, Ethyl 4-(1H-indol-6-yl)phenyl(7-(hydroxyamino)-7-oxoheptyl)carbamate] yielded an IC50 of 50 to 100 nM.

On to `CN1CCN(C(=O)N(CCCCCCC(=O)NO)c2ccc(-c3ccc4c(cnn4C)c3)cc2)CC1` [Compound 350, N-(7-(hydroxyamino)-7-oxoheptyl)-4-methyl-N-(4-(1-methyl-1H-indazol-5-yl)phenyl)piperazine-1-carboxamide], for which the IC50 with HL60 cell line lay in the range of 20 to 50 nM.

Turning to `CS(=O)(=O)N(CCCCCCC(=O)NO)c1ccc(-c2ccc3[nH]ccc3c2)cc1` [Compound 303, 7-(N-(4-(1H-indol-5-yl)phenyl)methylsulfonamido)-N-hydroxyheptanamide], the concentration for half-maximal inhibition (IC50) with HL60 cell line lay within 10 to 20 nM.

With `CN1CCN(C(=O)N(CCCCCCC(=O)NO)c2ccc(-c3ccc4[nH]ccc4c3)cc2)CC1` [Compound 313, N-(4-(1H-indol-5-yl)phenyl)-N-(7-(hydroxyamino)-7-oxoheptyl)-4-methylpiperazine-1-carboxamide], in the data set with HL60 cell line, the IC50 fell in the range of 20 to 50 nM.

In the data set with HL60 cell line, `Cn1ncc2ccc(-c3ccc(N(CCCCCCC(=O)NO)S(C)(=O)=O)cn3)cc21` [Compound 327, N-hydroxy-7-(N-(6-(1-methyl-1H-indazol-6-yl)pyridin-3-yl)methylsulfonamido)heptanamide] registered an IC50 of 50 to 100 nM.

As to `COc1ccc(C(=O)N(CCCCCCC(=O)NO)c2ccc(-c3ccc4cc[nH]c4c3)cc2)cc1` [Compound 180, N-(4-(1H-indol-6-yl)phenyl)-N-(7-(hydroxyamino)-7-oxoheptyl)-4-methoxybenzamide], the IC50 in the data set on HL60 cell line fell in the range of 20 to 50 nM.

`O=C(CCCCCCN(C(=O)c1ccccn1)c1ccc(-c2ccc3cc[nH]c3c2)cc1)NO` [Compound 211, N-(4-(1H-indol-6-yl)phenyl)-N-(7-(hydroxyamino)-7-oxoheptyl)picolinamide] showed an IC50 with HL60 cell line of 50 to 100 nM.

For the compound `CCN1CCN(C(=O)N(CCCCCCC(=O)NO)c2ccc(-c3ccc4cnn(C)c4c3)cc2)CC1` [Compound 336, 4-ethyl-N-(7-(hydroxyamino)-7-oxoheptyl)-N-(4-(1-methyl-1H-indazol-6-yl)phenyl)piperazine-1-carboxamide], the “IR (%)” value is 56% in data set [1] (setting [4]); 75% in data set [1] (setting [5]); 78% in data set [1] (Table 19, 80 mg/kg/day, qd x 5, 2 wks, ip). Further, the “colon cancer (HCT 116) inhibitory effect compared to control drugs” value in data set [1] (ip, qd x 5, 2 wks, in words) is recorded as “excellent inhibitory effects on colon cancer”. Further, the IC50 with HL60 cell line was in the range of 50 to 100 nM. This compound registered an MTD at 2 weeks in “in vivo” of 80 mg/kg.

For `CCS(=O)(=O)N(CCCCCCC(=O)NO)c1ccc(-c2ccc3[nH]ccc3c2)cc1` [Compound 314, 7-(N-(4-(1H-indol-5-yl)phenyl)ethylsulfonamido)-N-hydroxyheptanamide], the IC50 with HL60 cell line lay in the range of 20 to 50 nM.

In the data set on HL60 cell line, `Cn1ncc2ccc(-c3ccc(N(CCCCCCC(=O)NO)S(C)(=O)=O)cc3)cc21` [Compound 284, N-hydroxy-7-(N-(4-(1-methyl-1H-indazol-6-yl)phenyl)methylsulfonamido)heptanamide] registered a 50% inhibitory concentration (IC50) of 50 to 100 nM.

`O=C(CCCCCCN(C(=O)N1CCOCC1)c1ccc(-c2ccc3cc[nH]c3c2)cc1)NO` [Compound 306, N-(4-(1H-indol-6-yl)phenyl)-N-(7-(hydroxyamino)-7-oxoheptyl)morpholine-4-carboxamide] had an IC50 with HL60 cell line of 10 to 20 nM.

As to `Cn1ncc2ccc(-c3ccc(N(CCCCCCC(=O)NO)C(=O)c4cccnc4)cc3)cc21` [Compound 270, N-(7-(hydroxyamino)-7-oxoheptyl)-N-(4-(1-methyl-1H-indazol-6-yl)phenyl)nicotinamide], the half-maximal inhibitory concentration (IC50) in the data set on HL60 cell line was 50 to 100 nM.

`CN1CCN(C(=O)N(CCCCCCC(=O)NO)c2ccc(-c3ccc4c(ccn4C)c3)cc2)CC1` [Compound 341, N-(7-(hydroxyamino)-7-oxoheptyl)-4-methyl-N-(4-(1-methyl-1H-indol-5-yl)phenyl)piperazine-1-carboxamide] yielded a 50% inhibitory concentration (IC50) in the data set with HL60 cell line of 20 to 50 nM.

`CN1CCCN(C(=O)N(CCCCCCC(=O)NO)c2ccc(-c3ccc4cc[nH]c4c3)cc2)CC1` [Compound 330, N-(4-(1H-indol-6-yl)phenyl)-N-(7-(hydroxyamino)-7-oxoheptyl)-4-methyl-1,4-diazepane-1-carboxamide] had a half-maximal inhibitory concentration (IC50) with HL60 cell line of 50 to 100 nM.

In the case of `CCN1CCN(C(=O)N(CCCCCCC(=O)NO)c2ccc(-c3ccc4[nH]ccc4c3)cc2)CC1` [Compound 340, N-(4-(1H-indol-5-yl)phenyl)-4-ethyl-N-(7-(hydroxyamino)-7-oxoheptyl)piperazine-1-carboxamide], the 50% inhibitory concentration (IC50) in the data set on HL60 cell line fell in the range of 10 to 20 nM.
